Test results published in ChEMBL document CHEMBL1201862, “PubChem BioAssay data set” (2004).
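96-well plates; 48 h exposure; 5 concentrations. Endpoints by linear interpolation between flanking doses. Not reached: highest tested concentration assigned. GI50 marks 50% less growth.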 Activity calls are given as the source filed them. No stated cut-off is given here; in the data, active = GI50 up to about 1.1 µM and inactive = higher.

Experiments:
Assay in all cases: NCI-60 cell line screen, 48 h
UO-31 = tested on: UO-31
COLO 205 = tested on: COLO 205
SK-OV-3 = tested on: SK-OV-3
OVCAR-3 = tested on: OVCAR-3
OVCAR-8 = tested on: OVCAR-8
HL-60 = tested on: HL-60
Malme-3M = tested on: Malme-3M
TK-10 = tested on: TK-10
HCC 2998 = tested on: HCC 2998
HCT-116 = tested on: HCT-116
MOLT-4 = tested on: MOLT-4
A549 = tested on: A549
SF-295 = tested on: SF-295
UACC-62 = tested on: UACC-62
ACHN = tested on: ACHN
HOP-92 = tested on: HOP-92
DMS-273 = tested on: DMS-273
HCT-15 = tested on: HCT-15
NCI-H226 = tested on: NCI-H226
HT-29 = tested on: HT-29
NCI-H23 = tested on: NCI-H23
HOP-62 = tested on: HOP-62
EKVX = tested on: EKVX
OVCAR-5 = tested on: OVCAR-5
NCI-H460 = tested on: NCI-H460
RPMI-8226 = tested on: RPMI-8226
SN12C = tested on: SN12C
NCI-H522 = tested on: NCI-H522
SK-MEL-28 = tested on: SK-MEL-28
SNB-75 = tested on: SNB-75
IGROV-1 = tested on: IGROV-1
CCRF-CEM = tested on: CCRF-CEM
K562 = tested on: K562
SNB-19 = tested on: SNB-19
DMS-114 = tested on: DMS-114
OVCAR-4 = tested on: OVCAR-4
SR = tested on: SR
SW-620 = tested on: SW-620
SF-268 = tested on: SF-268
A498 = tested on: A498
U-251 = tested on: U-251
SK-MEL-2 = tested on: SK-MEL-2
M14 = tested on: M14
786-0 = tested on: 786-0
LOX IMVI = tested on: LOX IMVI
M19-MEL = tested on: M19-MEL
RXF 393 = tested on: RXF 393
SK-MEL-5 = tested on: SK-MEL-5
KM12 = tested on: KM12
CAKI-1 = tested on: CAKI-1
SNB-78 = tested on: SNB-78
SF-539 = tested on: SF-539
KM-20L2 = tested on: KM-20L2
UACC-257 = tested on: UACC-257
LXFL 529 = tested on: LXFL 529

Measured: GI50

CS/C(=N\c1ccccc1)N(c1ccccc1)c1nc(=[N+](C)C)ss1.[O-][Cl+3]([O-])([O-])[O-]
2260 nM: HCT-15
inactive: UO-31 15.1 µM | SK-OV-3 23.9 µM | OVCAR-3 1.66 µM | OVCAR-8 2.44 µM | Malme-3M 2.79 µM | TK-10 14.5 µM | HCC 2998 5.35 µM | HCT-116 2.56 µM | MOLT-4 1.5 µM | A549 14.5 µM | SF-295 12.5 µM | ACHN 5.42 µM | HOP-92 2.79 µM | NCI-H226 10 µM | NCI-H23 4.48 µM | HOP-62 13.9 µM | EKVX 15.3 µM | OVCAR-5 15.3 µM | SN12C 3.2 µM | SK-MEL-28 1.14 µM | SNB-75 4.71 µM | IGROV-1 1.22 µM | SNB-19 2.22 µM | OVCAR-4 9.46 µM | SR 2.16 µM | SW-620 1.36 µM | SF-268 5.13 µM | A498 12.4 µM | U-251 2.34 µM | SK-MEL-2 2.01 µM | M14 1.13 µM | 786-0 5.66 µM | LOX IMVI 3.15 µM | RXF 393 4.13 µM | SK-MEL-5 1.41 µM | KM12 2.65 µM | CAKI-1 3.48 µM | SNB-78 5.06 µM | SF-539 4.15 µM | UACC-257 2.05 µM
active: COLO 205 0.0647 µM | HL-60 0.927 µM | UACC-62 0.0441 µM | DMS-273 0.166 µM | HT-29 0.034 µM | NCI-H460 0.0338 µM | RPMI-8226 0.22 µM | NCI-H522 0.353 µM | CCRF-CEM 508 nM | K562 0.27 µM | DMS-114 0.0486 µM | M19-MEL 0.0877 µM | KM-20L2 1.06 µM

[N-]=[N+]=NC1(c2ccccc2)C(=O)c2cccc3c2N(CCC3)C1=O (centres undefined)
inactive: UO-31 18.1 µM | COLO 205 88.3 µM | SK-OV-3 92.9 µM | OVCAR-3 29.9 µM | HL-60 21.4 µM | MOLT-4 31.8 µM | SF-295 34.5 µM | UACC-62 92.7 µM | ACHN 54.1 µM | HOP-92 33.6 µM | HT-29 47.4 µM | NCI-H23 49.7 µM | HOP-62 > 100 µM | OVCAR-5 > 100 µM | NCI-H460 92.3 µM | RPMI-8226 27.7 µM | NCI-H522 27 µM | SK-MEL-28 > 100 µM | SNB-75 31.8 µM | LXFL 529 56.9 µM | IGROV-1 84.9 µM | K562 27.7 µM | SNB-19 97.5 µM | DMS-114 44.5 µM | OVCAR-4 55.8 µM | SR 36 µM | SF-268 94.2 µM | A498 54.6 µM | U-251 72.3 µM | SK-MEL-2 > 100 µM | M14 36.9 µM | 786-0 > 100 µM | M19-MEL 60.7 µM | RXF 393 > 100 µM | KM12 43.4 µM | SNB-78 45.1 µM | KM-20L2 > 100 µM | UACC-257 32.3 µM

COc1ccc(/C=C/COC(C)=O)cc1OC
> 100000 nM: HCT-15
inactive: UO-31 > 100 µM | COLO 205 > 100 µM | SK-OV-3 > 100 µM | OVCAR-3 > 100 µM | OVCAR-8 > 100 µM | Malme-3M > 100 µM | TK-10 > 100 µM | HCC 2998 > 100 µM | MOLT-4 > 100 µM | A549 > 100 µM | SF-295 > 100 µM | UACC-62 > 100 µM | ACHN > 100 µM | HOP-92 86.5 µM | DMS-273 > 100 µM | NCI-H226 > 100 µM | HT-29 > 100 µM | NCI-H23 > 100 µM | EKVX > 100 µM | OVCAR-5 > 100 µM | RPMI-8226 > 100 µM | SN12C > 100 µM | NCI-H522 > 100 µM | SK-MEL-28 > 100 µM | SNB-75 > 100 µM | LXFL 529 > 100 µM | IGROV-1 > 100 µM | K562 > 100 µM | SNB-19 > 100 µM | DMS-114 > 100 µM | OVCAR-4 > 100 µM | SR > 100 µM | SW-620 > 100 µM | SF-268 > 100 µM | U-251 > 100 µM | SK-MEL-2 > 100 µM | 786-0 > 100 µM | M19-MEL > 100 µM | RXF 393 > 100 µM | SK-MEL-5 > 100 µM | KM12 > 100 µM | CAKI-1 > 100 µM | SNB-78 > 100 µM | SF-539 > 100 µM | KM-20L2 > 100 µM | UACC-257 > 100 µM
